According to PMC13233288, “Spider venom peptides Ht1a and Gg1a are toxic to honeybee parasite Varroa destructor by topical application” (npj Drug Discovery, 2026):

What was measured:
[1] = system: V. destructor mites; assay: Topical application of synthetic peptides and oxalic acid to V. destructor mites; type: in vivo, Varroa destructor; settings: 3% oxalic acid, positive control
Procedure: An outline of the project discovery pipeline is presented in Supplementary Fig. 1. To identify varroacidal venom peptides, we screened venoms for activity against V. destructor by topical application. Topical tests were performed in several stages. First, whole venom was tested to determine mortality for V. destructor. Hit venoms were then subjected to several fractionation steps to isolate the active compounds. For the initial venom screen, a panel of 50 arthropod venoms (Table 1) were topically applied to V. destructor mites. Venoms were dissolved in 90% acetonitrile (v/v), and a 10 μg venom aliquot was applied per mite (n = 5 mites per venom). The dorsal plate of V. destructor mites (average mass 0.38 mg) was fixed to adhesive tape (ScotchTM 666 3 M; 19 × 32.9 mm, double sided) on microscope slides (ground edges 90° frosted end, 76 × 26 mm). A Nanoject II (Automatic Injector with Glass Capillaries, Drummond Cat.No. 3-000-205 A) was used for topical application of venom and control (90% acetonitrile) solutions. To accelerate solvent evaporation, the total volume of 483 nL was applied in seven aliquots of 69 nL each to the ventral plate of the mites between the posterior pair of legs. Each drop was allowed to dry before applying the next one, with the entire application procedure taking up to 1 h. Mite mortality was determined at various time intervals up to 48 h after the treatment using an Olympus stereomicroscope (SZX10/SZX2 Series). Initially, each mite was examined for movements of the legs, and immobile mites were stimulated with the tip of a wooden toothpick. Detection of static electricity by the mites, a few millimetres before the actual contact with the toothpick, was usually sufficient to trigger movement in mites that were still alive. […] At the later stage of the project, the slides with mites were placed into a self-constructed automated video monitoring system (using a USB camera) that employs an algorithm in OpenCV to subtract images from subsequent frames enabling the detection of changes in pixel intensity due to movements, for example of the extremities. Leg movements were stimulated with an air current applied over the mites at the time of image acquisition to determine mite mortality. The percentage of mite mortality for each venom was calculated at 2, 6 and 24 h, and adjusted by correcting for the mortality of the corresponding control group receiving only 90% acetonitrile.
The same procedure initially used for identifying varroacidal venoms was used for testing the topical activity of sHt1a and sGg1a. The peptides were dissolved in 0.5% Silwet L-77 (v/v), a silicone-based surfactant that is commonly used as a spreading agent for foliar sprays. 0.48 μg of peptide was topically applied to each mite, with n = 5 mites per treatment group. The activity of the sHt1a was confirmed using three cohorts of n = 5 mites, whereas the activity of sGg1a was confirmed using four cohorts of n = 5 mites. As a negative control, an equal volume of 0.5% Silwet (v/v) was topically applied (four cohorts of n = 5 mites), and 3% oxalic acid, a known varroacide used in commercial products[10] was used as positive control (eight cohorts of n = 5 mites). Mite mortality was recorded at 2-hourly intervals between 0 and 48 h after the treatment. For statistical analysis, mite survival data were plotted in Prism 10.0 (GraphPad Software, CA, USA), then a two-way ANOVA followed by Dunnett’s multiple comparisons test was performed, comparing the peptide and oxalic acid treatment against the respective 0.5% Silwet (v/v) control group data.

[2] = cited from earlier work
Description: (§1) A possible alternative solution for control of V. destructor is venom-derived acaricidal peptides. Venomous arachnids such as spiders and scorpions prey on arthropods, including other arachnids[17]–[19]. It is therefore unsurprising that the wide-spectrum insecticidal spider-venom peptide ω-hexatoxin-Hv1a (hereafter Hv1a) is also acaricidal. […] It therefore seems plausible that within the venoms of >53,000 extant spider[23] and >2,800 extant scorpion species, each comprising hundreds to thousands of p ...

[3] = system: honeybees; settings: cited from earlier work
Description: as §1

[4] = system: mammals; settings: cited from earlier work
Description: as §1

Compound	time to significant mortality ([1]; eight cohorts of n = 5 mites) [h]	survival of V. destructor ([1]; vs 0.5% Silwet group, two-way ANOVA, Dunnett)	acaricidal activity [2]	activity against honeybees [3]	activity against mammals [4]
O=C(O)C(=O)O [oxalic acid, reference compound]	2	significantly reduced V. destructor survival			
ω-hexatoxin-Hv1a			acaricidal	inactive	inactive
